Laboratory results reported in patent US8871465B2 (priority 2009, dated 2014).

Experiments:
[1] = Stability of the substrate in aqueous medium; assay type: physicochemical; conditions: medium at pH 7.2; a pH of 6.8 is required
[2] = as indicated in U.S. Pat. No. 6,558,917; cited from earlier work
[3] = system: Bacillus subtilis ATCC 6051; conditions: 37° C., pH 7.2, 1 000 CFU, detection threshold 30 000 RFU
Description: (§1) Various pure strains of the Bacillus genus and also other Gram-positive bacteria were tested in a microplate in the presence of the medium below. A reading of the appearance of the fluorescence in each of the various wells of the microplate was then performed at different times over the course of 44 h of incubation at 37° C.
(§2) The medium having the following composition was used (composition in g/l), pH 7.2:
(§3) The wells of the microplate are inoculated with 10 colony-forming units (CFU) of bacteria of the Bacillus cereus group and 1 000 CFU for the other Bacillus that are non cereus and other Gram-positive bacteria. The microplate is then incubated for 44 h at 37° C. in a microplate reader in order to evaluate the PC-PLC activity of these various strains in the form of kinetics of hydrolysis of the substrate 4 MU-CP, i.e to detect and measure the appearance of fluorescence. The detection threshold of the measuring apparatus is fixed at 30 000 RFU (relative fluorescence unit).

L. ivanovii 0002147 = conditions: 37° C., pH 7.2, 1 000 CFU, detection threshold 30 000 RFU
Description: as §1, §2, §3

L. ivanovii ATCC 49954 = conditions: 37° C., pH 7.2, 1 000 CFU, detection threshold 30 000 RFU
Description: as §1, §2, §3

L. monocytogenes 0301902 = conditions: 37° C., pH 7.2, 1 000 CFU, detection threshold 30 000 RFU
Description: as §1, §2, §3

[4] = system: L. monocytogenes ATCC 19118; conditions: 37° C., pH 7.2, 1 000 CFU, detection threshold 30 000 RFU
Description: as §1, §2, §3

S. aureus 25923 = conditions: 37° C., pH 7.2, 1 000 CFU, detection threshold 30 000 RFU
Description: as §1, §2, §3

S. aureus 8407603 = conditions: 37° C., pH 7.2, 1 000 CFU, detection threshold 30 000 RFU
Description: as §1, §2, §3

[5] = system: Bacillus cereus ATCC 7064; conditions: pH 7.2
[6] = system: ATCC 6464 (Bacillus cereus group); conditions: pH 7.2
[7] = system: ATCC 9139 (Bacillus cereus group); conditions: pH 7.2
[8] = system: ATCC 10876 (Bacillus cereus group); conditions: pH 7.2
[9] = system: ATCC 33019 (Bacillus cereus group); conditions: pH 7.2
[10] = system: NCTC 11145 (Bacillus cereus group); conditions: pH 7.2
[11] = system: 0240015 (Bacillus cereus group); conditions: pH 7.2
[12] = system: ATCC 6463 (Bacillus cereus group); conditions: pH 7.2
[13] = system: Bacillus licheniformis 93.08.043; conditions: pH 7.2
[14] = system: Bacillus sphaericus 8710054; conditions: pH 7.2
[15] = system: Bacillus circulans ATCC 4513; conditions: pH 7.2
[16] = system: Bacillus lentus ATCC 10840; conditions: pH 7.2
[17] = system: Bacillus pumilus ATCC 7061; conditions: pH 7.2
[18] = system: PaeniBacillus polymyxa ATCC 21551; conditions: pH 7.2
[19] = system: Bacillus megaterium ATCC 14581; conditions: pH 7.2
Bacillus cereus = conditions: pH 7.2
[20] = system: other Gram-positive bacteria; conditions: pH 7.2
[21] = system: Bacillus cereus ATCC 7064

Which “Stability of the substrate at pH 7.2” value [1] does the source give for `Cc1cc(=O)oc2cc(OP(=O)(O)OC3C(O)C(O)C(O)C(O)C3O)ccc12` (stereo not shown) [4 MU-MIP, 4-methylumbelliferyl myoinositol-1-phosphate] here?
Its value is “instability of the substrate being too great”.

And the “Stability in an aqueous medium” value [2]?
Its value is “reduced stability”.

For `Cc1cc(=O)oc2cc(OP(=O)([O-])OCC[N+](C)(C)C)ccc12` [4 MU-PC, 4-methylumbelliferyl choline phosphate], which “Levels of fluorescence in 24 h” value ([3]; 24 h) is on record?
The value was 10000 RFU.

And the “Levels of fluorescence in 40 h” value ([3]; 40 h)?
The value was 20000 RFU.

And the “Levels of fluorescence in 24 h” value (L. ivanovii 0002147; 24 h)?
The value was 2000 RFU.

And the “Levels of fluorescence in 40 h” value (L. ivanovii 0002147; 40 h)?
Its value is 10000 RFU.

What about the “Levels of fluorescence in 24 h” value (L. ivanovii ATCC 49954; 24 h) of the same compound?
Its value is 2000 RFU.

And the “Levels of fluorescence in 40 h” value (L. ivanovii ATCC 49954; 40 h)?
Its value is 10000 RFU.

And the “Levels of fluorescence in 24 h” value (L. monocytogenes 0301902; 24 h)?
Its value is 5000 RFU.

What about the “Levels of fluorescence in 40 h” value (L. monocytogenes 0301902; 40 h) of the same compound?
Its value is 10000 RFU.

What about the “Levels of fluorescence in 24 h” value ([4]; 24 h) of the same compound?
The value was 4000 RFU.

What about the “Levels of fluorescence in 40 h” value ([4]; 40 h) of the same compound?
The value was 15000 RFU.

And the “Levels of fluorescence in 24 h” value (S. aureus 25923; 24 h)?
Its value is 2000 RFU.

And the “Levels of fluorescence in 40 h” value (S. aureus 25923; 40 h)?
Its value is 2000 RFU.

And the “Levels of fluorescence in 24 h” value (S. aureus 8407603; 24 h)?
Its value is 2000 RFU.

What about the “Levels of fluorescence in 40 h” value (S. aureus 8407603; 40 h) of the same compound?
Its value is 2000 RFU.

What about the “Levels of fluorescence in 24 h” value [5] of the same compound?
Its value is >60000 RFU.

What about the “Levels of fluorescence in 40 h” value [5] of the same compound?
Its value is >60000 RFU.

And the “Levels of fluorescence in 24 h” value [6]?
The value was >60000 RFU.

And the “Levels of fluorescence in 40 h” value [6]?
Its value is >60000 RFU.

What about the “Levels of fluorescence in 24 h” value [7] of the same compound?
Its value is >60000 RFU.

What about the “Levels of fluorescence in 40 h” value [7] of the same compound?
The value was >60000 RFU.

What about the “Levels of fluorescence in 24 h” value [8] of the same compound?
Its value is >60000 RFU.

And the “Levels of fluorescence in 40 h” value [8]?
Its value is >60000 RFU.

What about the “Levels of fluorescence in 24 h” value [9] of the same compound?
Its value is >60000 RFU.

What about the “Levels of fluorescence in 40 h” value [9] of the same compound?
The value was >60000 RFU.

What about the “Levels of fluorescence in 24 h” value [10] of the same compound?
Its value is >60000 RFU.

What about the “Levels of fluorescence in 40 h” value [10] of the same compound?
Its value is >60000 RFU.

What about the “Levels of fluorescence in 24 h” value [11] of the same compound?
Its value is >60000 RFU.

What about the “Levels of fluorescence in 40 h” value [11] of the same compound?
Its value is >60000 RFU.

What about the “Levels of fluorescence in 24 h” value [12] of the same compound?
The value was >60000 RFU.

And the “Levels of fluorescence in 40 h” value [12]?
The value was >60000 RFU.

What about the “Levels of fluorescence in 24 h” value [13] of the same compound?
The value was 2000 RFU.

And the “Levels of fluorescence in 40 h” value [13]?
The value was 2000 RFU.

And the “Levels of fluorescence in 24 h” value [14]?
The value was 20000 RFU.

And the “Levels of fluorescence in 40 h” value [14]?
Its value is >60000 RFU.

And the “Levels of fluorescence in 24 h” value [15]?
Its value is 10000 RFU.

And the “Levels of fluorescence in 40 h” value [15]?
Its value is 20000 RFU.

What about the “Levels of fluorescence in 24 h” value [16] of the same compound?
The value was 5000 RFU.

And the “Levels of fluorescence in 40 h” value [16]?
Its value is 10000 RFU.

And the “Levels of fluorescence in 24 h” value [17]?
The value was 5000 RFU.

What about the “Levels of fluorescence in 40 h” value [17] of the same compound?
Its value is 10000 RFU.

And the “Levels of fluorescence in 24 h” value [18]?
Its value is 5000 RFU.

And the “Levels of fluorescence in 40 h” value [18]?
The value was 10000 RFU.

What about the “Levels of fluorescence in 24 h” value [19] of the same compound?
The value was 5000 RFU.

What about the “Levels of fluorescence in 40 h” value [19] of the same compound?
Its value is 5000 RFU.

What about the “Incubation time to positive signal (PC-PLC activity)” value (Bacillus cereus) of the same compound?
Its value is ≥ 15 h.

And the “Incubation time to positive signal (PC-PLC activity)” value [20]?
Its value is > 40 h.

And the “Reduction of the detection time at pH 7.2 compared with pH 6.8” value [21]?
Its value is 10 h.
